Tested on: obstructive sleep apnea (OSA) human patients
Settings: seven OSA patients, 2 additional nights with single drugs
Method: Subsequently, a placebo-controlled, double-blinded, randomized, crossover trial in 20 obstructive sleep apnea (OSA) human patients was performed. Participants received treatment (Atomoxetine 80 mg+Oxybutynin 5 mg) or placebo in randomized order 30 minutes before sleep. […] Data are expressed as median [25th-75th percentile]
Seven OSA patients were studied also on 2 additional nights in which the 2 drugs were administered alone (not in combination).
Group data was obtained using genioglossus electromyography in 16 out of 20 patients who took part to the original trial to determine the effect of Atomoxetine plus Oxybutynin (ato-oxy) on genioglossus muscle responsiveness. Muscle responsiveness reflects the change in genioglossus muscle electromyographic activity (percent of baseline) per change in esophageal pressure (Pes) swings during spontaneous breathing in non-REM sleep (see FIG. 10B for physiological context).

| SMILES | AHI compared to placebo, drugs alone vs in combination |
| --- | --- |
| CNCC[C@@H](Oc1ccccc1C)c1ccccc1 [Atomoxetine] | did not improve the AHI |
| CCN(CC)CC#CCOC(=O)C(O)(c1ccccc1)C1CCCCC1 (centres unmarked) [Oxybutynin] | did not improve the AHI |
